According to ChEMBL document CHEMBL4507278 (2021):

Legend:
[1] = target: Interleukin-1 receptor-associated kinase 4 (Homo sapiens) (UniProt Q9NWZ3); settings: Compound concentration 1000.0 nM
[2] = target: Dual specificity protein kinase CLK2 (Homo sapiens) (UniProt P49760); settings: Compound concentration 1000.0 nM
[3] = target: Activated CDC42 kinase 1 (Homo sapiens) (UniProt Q07912); settings: Compound concentration 1000.0 nM
[4] = target: MAP kinase-interacting serine/threonine-protein kinase 2 (Homo sapiens) (UniProt Q9HBH9); settings: Compound concentration 1000.0 nM
[5] = target: TGF-beta receptor type-1 (Homo sapiens) (UniProt P36897); settings: Compound concentration 1000.0 nM
[6] = system: Phosphatidylinositol 4,5-bisphosphate 3-kinase catalytic subunit alpha isoform (Homo sapiens), P42336 [C420R]; settings: Compound concentration 1000.0 nM
[7] = target: Atypical kinase COQ8B, mitochondrial (Homo sapiens) (UniProt Q96D53); settings: Compound concentration 1000.0 nM
[8] = target: Sigma intracellular receptor 2 (Homo sapiens) (UniProt Q5BJF2); settings: Compound concentration 10.0 uM
[9] = target: Alpha-2C adrenergic receptor (Homo sapiens) (UniProt P18825); settings: Compound concentration 10.0 uM
[10] = target: Death-associated protein kinase 1 (Homo sapiens) (UniProt P53355); settings: Compound concentration 1000.0 nM
[11] = target: Platelet-derived growth factor receptor beta (Homo sapiens) (UniProt P09619); settings: Compound concentration 1000.0 nM
[12] = target: Phosphorylase b kinase regulatory subunit alpha, liver isoform (Homo sapiens) (UniProt P46019); settings: Compound concentration 1000.0 nM
[13] = target: Serine/threonine-protein kinase 36 (Homo sapiens) (UniProt Q9NRP7); settings: Compound concentration 1000.0 nM
[14] = target: Cyclin-dependent kinase 15 (Homo sapiens) (UniProt Q96Q40); settings: Compound concentration 1000.0 nM
[15] = target: Tyrosine-protein kinase Tec (Homo sapiens) (UniProt P42680); settings: Compound concentration 1000.0 nM
[16] = target: cGMP-dependent protein kinase 2 (Homo sapiens) (UniProt Q13237); settings: Compound concentration 1000.0 nM
[17] = target: Serine/threonine-protein kinase 32A (Homo sapiens) (UniProt Q8WU08); settings: Compound concentration 1000.0 nM
[18] = target: Mitogen-activated protein kinase 8 (Homo sapiens) (UniProt P45983); settings: Compound concentration 1000.0 nM
[19] = target: Cyclin-G-associated kinase (Homo sapiens) (UniProt O14976); settings: Compound concentration 1000.0 nM
[20] = system: Receptor-type tyrosine-protein kinase FLT3 (Homo sapiens), P36888 [UNDEFINED MUTATION]; settings: Compound concentration 1000.0 nM
[21] = target: Membrane-associated tyrosine- and threonine-specific cdc2-inhibitory kinase (Homo sapiens) (UniProt Q99640); settings: Compound concentration 1000.0 nM
[22] = target: Dual specificity protein kinase CLK3 (Homo sapiens) (UniProt P49761); settings: Compound concentration 1000.0 nM
[23] = target: Receptor-interacting serine/threonine-protein kinase 2 (Homo sapiens) (UniProt O43353); settings: Compound concentration 1000.0 nM
[24] = target: Protein kinase C delta type (Homo sapiens) (UniProt Q05655); settings: Compound concentration 1000.0 nM
[25] = target: Cyclin-dependent kinase 4 (Homo sapiens) (UniProt P11802); settings: Compound concentration 1000.0 nM
[26] = target: Ephrin type-A receptor 6 (Homo sapiens) (UniProt Q9UF33); settings: Compound concentration 1000.0 nM
[27] = target: Serine/threonine-protein kinase DCLK1 (Homo sapiens) (UniProt O15075); settings: Compound concentration 1000.0 nM
[28] = target: Serine/threonine-protein kinase Chk1 (Homo sapiens) (UniProt O14757); settings: Compound concentration 1000.0 nM
[29] = target: Ribosomal protein S6 kinase alpha-6 (Homo sapiens) (UniProt Q9UK32); settings: Compound concentration 1000.0 nM
[30] = target: Mitogen-activated protein kinase 13 (Homo sapiens) (UniProt O15264); settings: Compound concentration 1000.0 nM
[31] = target: Homeodomain-interacting protein kinase 3 (Homo sapiens) (UniProt Q9H422); settings: Compound concentration 1000.0 nM
[32] = target: Cyclin-dependent kinase 5 (Homo sapiens) (UniProt Q00535); settings: Compound concentration 1000.0 nM
[33] = target: Serine/threonine-protein kinase RIO3 (Homo sapiens) (UniProt O14730); settings: Compound concentration 1000.0 nM
[34] = target: Serine/threonine-protein kinase TNNI3K (Homo sapiens) (UniProt Q59H18); settings: Compound concentration 1000.0 nM
[35] = target: Serine/threonine-protein kinase 32B (Homo sapiens) (UniProt Q9NY57); settings: Compound concentration 1000.0 nM
[36] = target: BDNF/NT-3 growth factors receptor (Homo sapiens) (UniProt Q16620); settings: Compound concentration 1000.0 nM
[37] = system: Phosphatidylinositol 4,5-bisphosphate 3-kinase catalytic subunit alpha isoform (Homo sapiens), P42336 [E545A]; settings: Compound concentration 1000.0 nM
[38] = target: Serine/threonine-protein kinase 3 (Homo sapiens) (UniProt Q13188); settings: Compound concentration 1000.0 nM
[39] = system: Proto-oncogene tyrosine-protein kinase receptor Ret (Homo sapiens), P07949 [V804L]; settings: Compound concentration 1000.0 nM
[40] = target: Wee1-like protein kinase (Homo sapiens) (UniProt P30291); settings: Compound concentration 1000.0 nM
Wee1-like protein kinase (Homo sapiens), sequence (P30291 whole entry, looked up): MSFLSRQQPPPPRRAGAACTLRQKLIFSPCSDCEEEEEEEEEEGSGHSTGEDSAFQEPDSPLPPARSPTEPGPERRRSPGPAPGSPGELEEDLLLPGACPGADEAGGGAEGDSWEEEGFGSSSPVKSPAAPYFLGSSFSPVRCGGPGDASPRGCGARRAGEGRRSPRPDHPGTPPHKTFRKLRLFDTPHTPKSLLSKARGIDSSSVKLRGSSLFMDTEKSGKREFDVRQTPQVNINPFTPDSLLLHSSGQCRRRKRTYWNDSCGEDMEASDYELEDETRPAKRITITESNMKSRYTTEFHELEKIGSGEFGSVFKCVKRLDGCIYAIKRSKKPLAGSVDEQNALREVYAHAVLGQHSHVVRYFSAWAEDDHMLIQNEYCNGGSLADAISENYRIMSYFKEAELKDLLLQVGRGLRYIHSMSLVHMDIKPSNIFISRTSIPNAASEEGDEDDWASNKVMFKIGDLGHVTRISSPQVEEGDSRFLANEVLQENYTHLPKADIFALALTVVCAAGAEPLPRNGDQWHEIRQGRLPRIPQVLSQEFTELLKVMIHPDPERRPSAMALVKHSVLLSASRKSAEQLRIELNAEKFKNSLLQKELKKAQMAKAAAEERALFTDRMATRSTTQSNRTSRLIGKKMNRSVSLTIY

Alpha-2C adrenergic receptor (Homo sapiens), sequence (P18825 whole entry): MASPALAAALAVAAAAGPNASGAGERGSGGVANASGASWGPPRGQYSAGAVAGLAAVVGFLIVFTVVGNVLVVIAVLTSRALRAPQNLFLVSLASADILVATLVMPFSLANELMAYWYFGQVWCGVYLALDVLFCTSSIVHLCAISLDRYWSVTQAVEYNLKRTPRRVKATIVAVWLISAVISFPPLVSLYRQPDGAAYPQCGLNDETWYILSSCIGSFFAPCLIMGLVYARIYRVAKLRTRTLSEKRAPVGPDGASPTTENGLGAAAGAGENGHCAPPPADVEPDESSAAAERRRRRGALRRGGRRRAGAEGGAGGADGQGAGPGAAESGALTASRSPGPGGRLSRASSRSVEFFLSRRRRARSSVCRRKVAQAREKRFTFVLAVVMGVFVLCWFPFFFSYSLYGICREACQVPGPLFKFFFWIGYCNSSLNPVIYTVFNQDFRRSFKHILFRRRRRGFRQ
Phosphatidylinositol 4,5-bisphosphate 3-kinase catalytic subunit alpha isoform (Homo sapiens), P42336 [C420R], sequence (P42336 whole entry C420R, canonical isoform): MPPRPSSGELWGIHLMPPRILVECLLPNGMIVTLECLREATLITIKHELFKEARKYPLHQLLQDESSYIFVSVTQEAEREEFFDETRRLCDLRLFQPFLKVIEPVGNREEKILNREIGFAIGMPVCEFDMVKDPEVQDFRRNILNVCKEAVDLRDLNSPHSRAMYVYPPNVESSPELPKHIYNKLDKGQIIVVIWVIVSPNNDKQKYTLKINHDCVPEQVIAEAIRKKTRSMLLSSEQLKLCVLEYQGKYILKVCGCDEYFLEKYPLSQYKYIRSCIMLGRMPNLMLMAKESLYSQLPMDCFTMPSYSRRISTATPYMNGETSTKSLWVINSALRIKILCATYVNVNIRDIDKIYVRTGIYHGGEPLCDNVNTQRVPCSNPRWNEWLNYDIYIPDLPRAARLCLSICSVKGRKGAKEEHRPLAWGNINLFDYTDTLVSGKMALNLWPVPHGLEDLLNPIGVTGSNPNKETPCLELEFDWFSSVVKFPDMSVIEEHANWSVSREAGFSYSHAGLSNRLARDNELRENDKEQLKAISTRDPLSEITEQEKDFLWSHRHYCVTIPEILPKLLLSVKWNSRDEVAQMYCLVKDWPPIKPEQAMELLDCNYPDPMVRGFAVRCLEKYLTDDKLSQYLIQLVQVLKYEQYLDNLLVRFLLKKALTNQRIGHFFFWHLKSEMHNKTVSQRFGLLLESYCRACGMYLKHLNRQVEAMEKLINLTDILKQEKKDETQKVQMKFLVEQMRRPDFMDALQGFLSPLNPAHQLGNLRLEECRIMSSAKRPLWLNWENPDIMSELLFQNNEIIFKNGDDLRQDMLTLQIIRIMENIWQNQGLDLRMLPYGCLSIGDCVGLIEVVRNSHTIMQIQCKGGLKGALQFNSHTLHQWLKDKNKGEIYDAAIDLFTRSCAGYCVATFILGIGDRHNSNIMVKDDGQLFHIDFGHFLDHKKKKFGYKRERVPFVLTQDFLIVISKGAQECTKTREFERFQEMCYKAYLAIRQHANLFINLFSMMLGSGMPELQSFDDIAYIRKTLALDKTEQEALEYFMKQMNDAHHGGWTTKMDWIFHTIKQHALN
Sigma intracellular receptor 2 (Homo sapiens), sequence (Q5BJF2 whole entry): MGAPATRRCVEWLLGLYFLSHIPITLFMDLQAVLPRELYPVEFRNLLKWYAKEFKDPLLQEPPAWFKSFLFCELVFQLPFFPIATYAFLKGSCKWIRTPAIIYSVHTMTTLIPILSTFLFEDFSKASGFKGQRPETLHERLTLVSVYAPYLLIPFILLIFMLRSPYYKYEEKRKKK
Serine/threonine-protein kinase TNNI3K (Homo sapiens), sequence (Q59H18 whole entry): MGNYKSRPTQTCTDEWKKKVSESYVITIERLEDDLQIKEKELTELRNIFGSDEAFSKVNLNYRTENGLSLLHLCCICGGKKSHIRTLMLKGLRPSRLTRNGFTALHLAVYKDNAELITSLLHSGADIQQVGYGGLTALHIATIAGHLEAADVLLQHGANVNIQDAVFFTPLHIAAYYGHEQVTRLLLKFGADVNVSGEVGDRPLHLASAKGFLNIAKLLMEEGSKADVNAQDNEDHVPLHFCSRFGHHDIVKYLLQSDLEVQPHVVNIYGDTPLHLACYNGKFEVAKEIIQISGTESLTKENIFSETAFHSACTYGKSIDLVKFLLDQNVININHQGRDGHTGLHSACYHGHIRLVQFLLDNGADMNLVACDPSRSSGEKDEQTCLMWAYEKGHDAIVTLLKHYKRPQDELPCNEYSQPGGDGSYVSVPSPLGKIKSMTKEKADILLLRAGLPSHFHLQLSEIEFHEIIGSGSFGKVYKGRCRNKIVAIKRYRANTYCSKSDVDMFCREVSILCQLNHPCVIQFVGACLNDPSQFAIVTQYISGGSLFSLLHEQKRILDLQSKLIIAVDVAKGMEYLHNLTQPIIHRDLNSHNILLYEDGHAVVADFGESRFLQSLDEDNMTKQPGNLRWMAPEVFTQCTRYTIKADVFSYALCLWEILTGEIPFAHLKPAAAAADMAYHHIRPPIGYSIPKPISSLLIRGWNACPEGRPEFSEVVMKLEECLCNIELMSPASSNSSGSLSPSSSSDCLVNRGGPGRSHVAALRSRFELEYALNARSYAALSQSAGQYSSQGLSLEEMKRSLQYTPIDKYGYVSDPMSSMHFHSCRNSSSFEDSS
Serine/threonine-protein kinase Chk1 (Homo sapiens), sequence (O14757 whole entry): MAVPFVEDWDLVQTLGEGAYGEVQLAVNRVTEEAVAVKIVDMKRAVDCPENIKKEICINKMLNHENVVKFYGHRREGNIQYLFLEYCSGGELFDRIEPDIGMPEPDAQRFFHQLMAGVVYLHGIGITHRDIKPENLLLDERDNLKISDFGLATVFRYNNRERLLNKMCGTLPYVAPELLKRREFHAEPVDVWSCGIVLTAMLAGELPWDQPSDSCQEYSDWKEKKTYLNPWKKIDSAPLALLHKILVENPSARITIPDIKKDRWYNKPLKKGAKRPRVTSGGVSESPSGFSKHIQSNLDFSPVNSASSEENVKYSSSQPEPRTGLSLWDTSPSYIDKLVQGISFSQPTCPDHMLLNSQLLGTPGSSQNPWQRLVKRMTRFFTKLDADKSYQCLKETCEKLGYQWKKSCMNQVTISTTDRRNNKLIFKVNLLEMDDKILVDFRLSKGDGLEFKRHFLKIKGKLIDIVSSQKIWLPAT
Tyrosine-protein kinase Tec (Homo sapiens), sequence (P42680 whole entry): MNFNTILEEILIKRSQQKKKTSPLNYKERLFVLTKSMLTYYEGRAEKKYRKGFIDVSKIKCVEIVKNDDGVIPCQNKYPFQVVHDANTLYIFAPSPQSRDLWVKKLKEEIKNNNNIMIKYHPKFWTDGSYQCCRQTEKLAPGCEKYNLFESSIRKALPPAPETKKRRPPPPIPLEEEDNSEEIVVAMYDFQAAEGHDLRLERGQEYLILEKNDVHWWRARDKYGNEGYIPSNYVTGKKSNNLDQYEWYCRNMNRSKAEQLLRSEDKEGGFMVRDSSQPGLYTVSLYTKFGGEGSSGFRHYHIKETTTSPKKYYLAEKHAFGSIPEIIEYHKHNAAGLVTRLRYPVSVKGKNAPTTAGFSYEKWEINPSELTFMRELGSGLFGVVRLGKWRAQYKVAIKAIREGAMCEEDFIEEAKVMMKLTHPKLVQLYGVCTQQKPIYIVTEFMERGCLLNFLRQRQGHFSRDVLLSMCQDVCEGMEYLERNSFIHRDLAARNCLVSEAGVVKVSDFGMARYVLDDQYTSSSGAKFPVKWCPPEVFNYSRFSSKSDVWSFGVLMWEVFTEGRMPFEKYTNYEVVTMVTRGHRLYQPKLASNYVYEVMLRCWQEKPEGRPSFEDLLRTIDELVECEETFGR
Ribosomal protein S6 kinase alpha-6 (Homo sapiens), sequence (Q9UK32 whole entry): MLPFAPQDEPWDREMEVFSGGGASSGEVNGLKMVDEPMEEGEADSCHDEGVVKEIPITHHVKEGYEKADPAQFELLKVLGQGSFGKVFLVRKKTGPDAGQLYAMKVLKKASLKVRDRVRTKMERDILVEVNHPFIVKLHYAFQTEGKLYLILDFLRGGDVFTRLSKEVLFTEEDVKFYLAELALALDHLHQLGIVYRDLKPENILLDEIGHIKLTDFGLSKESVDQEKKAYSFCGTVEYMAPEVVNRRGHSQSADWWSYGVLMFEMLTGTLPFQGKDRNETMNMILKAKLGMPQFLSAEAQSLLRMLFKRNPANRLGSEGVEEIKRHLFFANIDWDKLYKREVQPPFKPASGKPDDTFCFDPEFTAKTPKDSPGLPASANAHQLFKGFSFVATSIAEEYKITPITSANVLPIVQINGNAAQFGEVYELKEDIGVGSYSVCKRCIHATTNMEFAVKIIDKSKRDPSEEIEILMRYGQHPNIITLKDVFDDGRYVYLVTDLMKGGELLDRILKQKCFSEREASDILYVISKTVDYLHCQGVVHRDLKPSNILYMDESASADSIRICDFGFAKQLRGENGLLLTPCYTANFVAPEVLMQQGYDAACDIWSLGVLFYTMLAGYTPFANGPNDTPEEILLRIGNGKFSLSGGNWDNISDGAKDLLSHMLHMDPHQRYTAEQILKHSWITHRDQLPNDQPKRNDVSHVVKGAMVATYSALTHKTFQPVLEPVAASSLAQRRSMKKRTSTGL

CS(=O)(=O)NCC[C@H](NC(=O)c1cncc2c1cnn2-c1ccc(F)cc1)c1ccnc(S(C)(=O)=O)c1 [BI 9307]
inactive: residual activity [1] 100% | residual activity [2] 100% | residual activity [3] 100% | residual activity [4] 100% | residual activity [5] 100% | residual activity [6] 98% | residual activity [7] 100% | inhibition [8] -1.85% | inhibition [9] -2.08% | residual activity [10] 100% | residual activity [11] 100% | residual activity [12] 100% | residual activity [13] 100% | residual activity [14] 79% | residual activity [15] 96% | residual activity [16] 87% | residual activity [17] 74% | residual activity [18] 80% | residual activity [19] 100% | residual activity [20] 99% | residual activity [21] 84% | residual activity [22] 99% | residual activity [23] 100% | residual activity [24] 76% | residual activity [25] 100% | residual activity [26] 100% | residual activity [27] 94% | residual activity [28] 97% | residual activity [29] 99% | residual activity [30] 100% | residual activity [31] 100% | residual activity [32] 100% | residual activity [33] 100% | residual activity [34] 100% | residual activity [35] 67% | residual activity [36] 100% | residual activity [37] 100% | residual activity [38] 100% | residual activity [39] 100% | residual activity [40] 99%

CS(=O)(=O)c1cc(C2(NC(=O)c3cncc4c3cnn4-c3ccc(F)cc3)CC2)ccn1 [BI 639667]
inactive: residual activity [1] 100% | residual activity [2] 100% | residual activity [3] 100% | residual activity [4] 100% | residual activity [5] 100% | residual activity [6] 83% | residual activity [7] 100% | inhibition [8] 9.02% | inhibition [9] -6.8% | residual activity [10] 83% | residual activity [11] 93% | residual activity [12] 100% | residual activity [13] 100% | residual activity [14] 100% | residual activity [15] 99% | residual activity [16] 89% | residual activity [17] 71% | residual activity [18] 95% | residual activity [19] 85% | residual activity [20] 58% | residual activity [21] 85% | residual activity [22] 86% | residual activity [23] 53% | residual activity [24] 100% | residual activity [25] 100% | residual activity [26] 100% | residual activity [27] 75% | residual activity [28] 100% | residual activity [29] 97% | residual activity [30] 93% | residual activity [31] 85% | residual activity [32] 100% | residual activity [33] 100% | residual activity [34] 64% | residual activity [35] 100% | residual activity [36] 91% | residual activity [37] 100% | residual activity [38] 100% | residual activity [39] 100% | residual activity [40] 100%
